In patent US20240408107A1, “LACTAM PYRROLIDINE-PYRAZOLES AS PYRUVATE KINASE ACTIVATORS” (Global Blood Therapeutics, Inc., priority 2021, published 2024):

Experiments:
[1] = tested on: PK activity, ATP levels, RBC parameters; conditions: mouse model of beta-thalassemia; cited from earlier work
[2] = target: T1, human pyruvate kinase R (PKR) (Homo sapiens, UniProt P30613); experiment: Biochemical assay for activation of pyruvate kinase R (Kinase-Glo luminescence, ATP generation); conditions: for AC50: PKR biochemical assay, 0.1 nM PKR; for Emax: maximal activation level relative to the activation level achieved by AG-348 @ 10 μM
T1 construct: Human pyruvate kinase R (PKR), residues 14-574; 6xHis (N, cleaved yes); 8xArg (N, cleaved yes); SUMO (N, cleaved yes); host or cells: E. coli
T1 sequence (P30613 14-574): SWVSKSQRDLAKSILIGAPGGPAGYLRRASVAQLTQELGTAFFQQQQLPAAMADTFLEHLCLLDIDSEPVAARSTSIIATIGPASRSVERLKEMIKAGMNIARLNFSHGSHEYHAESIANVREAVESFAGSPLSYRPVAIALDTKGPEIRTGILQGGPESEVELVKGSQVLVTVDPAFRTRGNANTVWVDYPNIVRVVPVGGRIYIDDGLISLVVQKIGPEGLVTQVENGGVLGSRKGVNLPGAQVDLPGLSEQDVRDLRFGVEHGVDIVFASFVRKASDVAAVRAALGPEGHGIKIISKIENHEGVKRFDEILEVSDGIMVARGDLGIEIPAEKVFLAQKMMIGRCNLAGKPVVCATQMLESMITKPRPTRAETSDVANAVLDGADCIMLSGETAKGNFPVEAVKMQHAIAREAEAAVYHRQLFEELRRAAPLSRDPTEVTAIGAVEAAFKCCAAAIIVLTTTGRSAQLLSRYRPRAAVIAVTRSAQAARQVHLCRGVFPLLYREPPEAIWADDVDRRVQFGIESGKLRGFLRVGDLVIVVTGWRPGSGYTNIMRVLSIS
Experimental: Human pyruvate kinase R (PKR), residues 14-574, and human pyruvate kinase M2, residues 1-531, were cloned into expression plasmids and obtained from ATUM Bio (Newark, CA). Proteins were translated as fusions with 6×-His,8×-Arg, and SUMO at the N-terminus. A third construct of human PKR was truncated, residues 50-574, and similarly cloned for use in crystallography experiments. All proteins were cloned, expressed in E. coli, and purified using similar protocols. Cells were grown at 30° C. in Luria-Bertani broth supplemented with 0.4% glucose to OD600=0.8 and induced with 0.4 mM IPTG at 16° C. for 18 hours. Cells were harvested by centrifugation, resuspended in 50 mM potassium phosphate pH 8.0, 500 mM NaCl, 25 mM imidazole pH 8.0, and 3 mM β-mercaptoethanol. Cells were lysed using a LM20 microfluidizer from Microfluidics (Westwood, MA). The crude lysate was immediately supplemented with 0.2 mM phenylmethylsulfonyl fluoride (PMSF) and centrifuged at 20,000 g for 20 minutes. The soluble fraction was subsequently incubated with 2 mL Ni-NTA (GE Healthcare) per 1,000 ODs for 1 hour at 4° C. Following incubation with the Ni-NTA resin, lysate was removed by pelleting resin at 2,500 g for 3 minutes and washed 3 times with 9 bed volumes of 50 mM potassium phosphate pH 8.0, 500 mM NaCl, 25 mM imidazole, and 3 mM β-mercaptoethanol. Following the batch wash Ni-NTA resin was loaded onto a gravity column and His-tagged protein was eluted with 6 bed volumes of 10 mM Tris/HCl pH 8.0, 200 mM NaCl, 500 mM imidazole, and 3 mM β-mercaptoethanol. Eluted protein was dialyzed overnight against 10 mM Tris/HCl pH 8.0, 200 mM NaCl, and 1 mM DTT and the 6×-His-8×-Arg-SUMO-tag was cleaved using a 20:1 molar ratio of protein:3C protease. The protein was purified by anion exchange chromatography on a HiTrapQ or MonoQ 10/100 GL column (GE Healthcare) via a linear NaCl gradient and twice by size exclusion chromatography using a Superdex S200 26/60 column (GE Healthcare) run in 10 mM Tris/HCl pH 8.0, 200 mM NaCl, 10 mM MgCl2, 1 mM DTT. Proteins were concentrated to ˜12 mg/mL for crystallization and flash frozen for storage.
Activation of pyruvate kinase R (PKR) and pyruvate kinase M2 (PKM2) were measured using a luminescence based measurement of ATP generation and the Kinase-Glo luminescent kinase reagent kit. 0.1 nM of PKR or PKM2 was incubated for 1 hour with 0.3 mM ADP, 2 mM FBP, 1% DMSO, compound and Assay Buffer mix (500 mM Tris/HCl pH 7.5, 500 mM NaCl, 50 mM MgCl2, BSA, and 2 mM DTT, in a total reaction volume of 30 uL. After one hour PEP was added to the reaction at a final concentration of 0.1 mM and incubated for another hour at room temperature. 30 uL of KinaseGlo reagent was added and the reaction was incubated for 15 minutes. Endpoint luminescence data was measured using an EnVision plate reader (PerkinElmer). The assay results are provided in Table 2 for PKR.

[3] = target: T2, Pyruvate Kinase M2 (PKM2) in H1299 cells (Homo sapiens, UniProt P14618); experiment: Cell based assay for activation of pyruvate kinase M2 in lung carcinoma cell line (H1299, NADH/LDH coupled assay of lysate); conditions: PKM2 cellular assay; for AC50: H1299 cells, 90 minutes with compound; for PKM2 % activation: maximal activation level relative to the activation level achieved by AG-348 @ 10 μM
T2 construct: endogenous in cells; host or cells: H1299 cells
T2 sequence (P14618 2-531 limits assumed): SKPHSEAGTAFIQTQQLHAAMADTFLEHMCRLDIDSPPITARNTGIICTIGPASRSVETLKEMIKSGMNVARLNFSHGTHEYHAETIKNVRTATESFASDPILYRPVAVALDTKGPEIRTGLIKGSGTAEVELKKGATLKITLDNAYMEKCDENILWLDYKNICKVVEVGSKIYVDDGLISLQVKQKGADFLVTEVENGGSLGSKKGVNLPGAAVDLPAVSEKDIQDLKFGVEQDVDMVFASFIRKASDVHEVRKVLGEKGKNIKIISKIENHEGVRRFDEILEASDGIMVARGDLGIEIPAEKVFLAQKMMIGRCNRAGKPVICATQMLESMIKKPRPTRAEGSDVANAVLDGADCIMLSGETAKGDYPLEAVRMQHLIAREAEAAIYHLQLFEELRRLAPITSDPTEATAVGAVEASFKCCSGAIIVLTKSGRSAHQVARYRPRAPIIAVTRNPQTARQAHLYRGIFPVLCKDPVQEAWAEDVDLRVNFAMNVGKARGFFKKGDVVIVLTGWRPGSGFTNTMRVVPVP
Experimental: H1299 cells were seeded in 96-well plates at 2,000 cells/well (100 uL). Treated plates were incubated overnight at 37° C. with 5% CO2. Compounds were diluted in complete media and added to cells in the presence of 1% DMSO. Cells were incubated with compound for 90 minutes at 37° C. and 5% CO2 before washing three times with PBS to remove residual compound and then lysed in lysis buffer (Cell Signaling). Cell lysate was analyzed using the NADH coupled assay described below with a reaction mixture of 180 uM NADH, 2 mM ADP, 0.5 units of LDH and 0.5 mM of PEP. PKM2 activity was measured at steady state using a coupled enzyme activation system based on NADH consumption. PKM2 produces pyruvate and the coupled system uses lactate dehydrogenase (LDH) to reduce pyruvate to lactate with the concomitant oxidation of NADH to NAD^+. Conversion of NADH to NAD^+ was monitored using a SPECTROstar Nano plate reader (BMG Labtech) at a wavelength of 340 nm and subtraction of background absorbance measured at 750 nm. The change in NADH absorbance after PEP addition was monitored and slope obtained by subtracting baseline at 750 nm followed by least squares fitting to a simple linear regression model. A 10-point curve was generated to calculate the AC50 values by fitting the rates of NADH consumption against increasing concentration of compound.

SMILES | PK activity and ATP levels [1] | RBC parameters [1] | AC50 [2] | Emax [2] | AC50 [3] | PKM2 % activation [3]
O=C(c1ccc(NS(=O)(=O)c2cccc3cccnc23)cc1)N1CCN(CC2CC2)CC1 [AG-348, Mitapivat] | increased | improved |  |  |  | 
O=C1Nc2ccccc2C1CC(=O)N1Cc2cn(S(=O)(=O)c3cnn(CC(F)F)c3)nc2C1 (stereo not drawn) [Compound 1, 3-[2-(2-{[1-(2,2-difluoroethyl)-1H-pyrazol-4-yl]sulfonyl}-2H,4H,5H,6H-pyrrolo[3,4-c]pyrazol-5-yl)-2-oxoethyl]-2,3-dihydro-1H-indol-2-one] |  |  | 230 nM | 212% |  | 
O=C(CN1C(=O)Cc2ccccc21)N1Cc2cn(S(=O)(=O)c3cnn(CC(F)F)c3)nc2C1 [Compound 2, 1-[2-(2-{[1-(2,2-difluoroethyl)-1H-pyrazol-4-yl]sulfonyl}-2H,4H,5H,6H-pyrrolo[3,4-c]pyrazol-5-yl)-2-oxoethyl]-2,3-dihydro-1H-indol-2-one] |  |  | 410 nM | 32% |  | 
O=C(Cn1c(=O)oc2ccccc21)N1Cc2cn(S(=O)(=O)c3cnn(CC(F)F)c3)nc2C1 [Compound 3, 3-[2-(2-{[1-(2,2-difluoroethyl)-1H-pyrazol-4-yl]sulfonyl}-2H,4H,5H,6H-pyrrolo[3,4-c]pyrazol-5-yl)-2-oxoethyl]-2,3-dihydro-1,3-benzoxazol-2-one] |  |  | 1800 nM | 60% |  | 
O=C(Cn1c(=O)[nH]c2ccccc21)N1Cc2cn(S(=O)(=O)c3cnn(CC(F)F)c3)nc2C1 [Compound 4, 1-[2-(2-{[1-(2,2-difluoroethyl)-1H-pyrazol-4-yl]sulfonyl}-2H,4H,5H,6H-pyrrolo[3,4-c]pyrazol-5-yl)-2-oxoethyl]-2,3-dihydro-1H-1,3-benzodiazol-2-one] |  |  | 10000 nM | 78% |  | 
O=C1COc2ccccc2C(C(=O)N2Cc3cn(S(=O)(=O)c4cnn(CC(F)F)c4)nc3C2)N1 (stereo not drawn) [Compound 5, 5-(2-{[1-(2,2-difluoroethyl)-1H-pyrazol-4-yl]sulfonyl}-2H,4H,5H,6H-pyrrolo[3,4-c]pyrazole-5-carbonyl)-2,3,4,5-tetrahydro-1,4-benzoxazepin-3-one] |  |  | 490 nM | 91% |  | 
O=C1Cc2ccccc2C(C(=O)N2Cc3cn(S(=O)(=O)c4cnn(CC(F)F)c4)nc3C2)N1 (stereo not drawn) [Compound 6, 1-(2-{[1-(2,2-difluoroethyl)-1H-pyrazol-4-yl]sulfonyl}-2H,4H,5H,6H-pyrrolo[3,4-c]pyrazole-5-carbonyl)-1,2,3,4-tetrahydroisoquinolin-3-one] |  |  | 4400 nM | 84% |  | 
O=C1COc2c(F)cccc2C(C(=O)N2Cc3cn(S(=O)(=O)c4cnn(CC(F)F)c4)nc3C2)N1 (stereo not drawn) [Compound 7, 5-(2-{[1-(2,2-difluoroethyl)-1H-pyrazol-4-yl]sulfonyl}-2H,4H,5H,6H-pyrrolo[3,4-c]pyrazole-5-carbonyl)-9-fluoro-2,3,4,5-tetrahydro-1,4-benzoxazepin-3-one] |  |  | 1800 nM | 66% |  | 
CC1(CC(=O)N2Cc3cn(S(=O)(=O)c4cnn(CC(F)F)c4)nc3C2)C(=O)Nc2ccccc21 (stereo not drawn) [Compound 8, 3-[2-(2-{[1-(2,2-difluoroethyl)-1H-pyrazol-4-yl]sulfonyl}-2H,4H,5H,6H-pyrrolo[3,4-c]pyrazol-5-yl)-2-oxoethyl]-3-methyl-2,3-dihydro-1H-indol-2-one] |  |  | 1900 nM | 95% |  | 
O=C1Nc2ccccc2C1CC(=O)N1Cc2cn(S(=O)(=O)c3ccc4ncsc4c3)nc2C1 (stereo not drawn) [Compound 9, 3-{2-[2-(1,3-benzothiazole-6-sulfonyl)-2H,4H,5H,6H-pyrrolo[3,4-c]pyrazol-5-yl]-2-oxoethyl}-2,3-dihydro-1H-indol-2-one] |  |  | 28 nM | 161% | 100 nM | 87%
O=C1Nc2ccccc2C1CC(=O)N1Cc2cn(S(=O)(=O)c3ccc(OC(F)F)cc3)nc2C1 (stereo not drawn) [Compound 10, 3-(2-{2-[4-(difluoromethoxy)benzenesulfonyl]-2H,4H,5H,6H-pyrrolo[3,4-c]pyrazol-5-yl}-2-oxoethyl)-2,3-dihydro-1H-indol-2-one] |  |  | 78 nM | 129% | 14 nM | 165%
O=C(CN1C(=O)Cc2ccccc21)N1Cc2cn(S(=O)(=O)c3ccc(OC(F)F)cc3)nc2C1 [Compound 11, 1-(2-{2-[4-(difluoromethoxy)benzenesulfonyl]-2H,4H,5H,6H-pyrrolo[3,4-c]pyrazol-5-yl}-2-oxoethyl)-2,3-dihydro-1H-indol-2-one] |  |  | 1700 nM | 77% |  | 
O=C1COc2ccccc2C(C(=O)N2Cc3cn(S(=O)(=O)c4ccc(OC(F)F)cc4)nc3C2)N1 (stereo not drawn) [Compound 12, 5-{2-[4-(difluoromethoxy)benzenesulfonyl]-2H,4H,5H,6H-pyrrolo[3,4-c]pyrazole-5-carbonyl}-2,3,4,5-tetrahydro-1,4-benzoxazepin-3-one] |  |  | 210 nM | 91% |  | 
